Laboratory results from patent US8343966B2, “Organic compounds” (Novartis AG, priority 2008, dated 2013).

Target: T1, human ALK5 (ALK5 T204D kinase domain) (Homo sapiens, UniProt P36897, T204D)
T1 construct: The kinase domain of human ALK5 (amino acids 200-503); made in house; host or cells: insect cells (baculovirus)
T1 sequence (P36897 200-503 T204D): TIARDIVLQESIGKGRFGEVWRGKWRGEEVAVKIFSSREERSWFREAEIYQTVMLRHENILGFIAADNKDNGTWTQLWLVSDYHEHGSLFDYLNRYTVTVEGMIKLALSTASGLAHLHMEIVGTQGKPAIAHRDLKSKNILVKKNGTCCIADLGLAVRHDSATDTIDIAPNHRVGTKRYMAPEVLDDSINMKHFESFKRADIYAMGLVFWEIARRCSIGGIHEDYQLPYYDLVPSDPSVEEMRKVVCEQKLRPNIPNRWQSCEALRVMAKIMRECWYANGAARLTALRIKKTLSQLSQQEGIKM
Assay: ALK5 kinase assay, [33P] phosphate incorporation into casein
Format: biochemical
Details: casein substrate, 1 μM unlabelled ATP
Method: The kinase activity of ALK5 is assessed by measuring radiolabelled phosphate [33P] incorporation in to the generic substrate, casein. The kinase domain of human ALK5 (amino acids 200-503) is fused to an N-terminal histidine tag. The kinase activity of ALK5 is rendered constitutive via point mutation at amino acid 204 (threonine to aspartate modification, ALK5 T204D) and the kinase construct is engineered to be expressed from a baculovirus expression construct in insect cells. The purified, recombinantly-expressed histidine-tagged ALK5 T204D protein is dissolved at 5.4 mg/ml in 50 mM Tris-HCl pH 8.0, 150 mM NaCl, 5 mM DTT. ALK5 T204D is dissolved to 2.5 μg/ml in assay buffer (Assay buffer: 20 mM Tris-HCl pH 7.4, 10 mM MgCl2, 2 mM MnCl2) on the day of use.
Test compounds and reference compounds are dissolved in assay buffer without DTT containing 5% (v/v) DMSO. Stock solutions of test and reference compounds are diluted in assay buffer with DTT (1.25 mM) containing 4.5% (v/v) DMSO. 10 μl of test or reference compound are added to the appropriate wells of 96 well U-bottomed plate. Total enzyme activity is determined by measuring ALK5 T204D activity in the absence of ALK5 kinase inhibitor reference compounds. Non-specific binding (NSB) is determined by measuring the activity of ALK5 T204D in the presence of ALK5 kinase inhibitor reference compounds. 10 μl of dephosphorylated casein stock solution (dephosphorylated casein is dissolved in ddH2O at 20 mg/ml) is added per well (200 μg/well final assay concentration). 20 μl of ALK5 T204D (2.5 μg/ml solution) is added per well (50 ng/well final assay concentration). The plates are left to incubate at room temperature for 10 minutes.
10 μl of ATP mix is added to the well to initiate the reaction (0.66 nM [^33P]ATP/1 μM unlabelled ATP/well final assay concentration). The ATP mix is prepared as follows, unlabelled ATP (3 mM) is dissolved in ddH2O and pH adjusted to 7.4. The stock concentration of [^33P]ATP is 10 μCi/μl. The appropriate volume of [^33P]ATP is added to unlabelled ATP solution such that the final assay concentration per well is 0.1 μCi. Following addition of the ATP mix, the plates are incubated at room temperature for 50 minutes. The kinase reaction is terminated by the addition of 50 μL Stop Buffer (20 mM Tris-HCl pH 7.4, 10 mM EDTA).
75 μl/well from the reaction plate is transferred to a Multiscreen-IP plate (MultiScreen-IP plates are prepared by added 50 μL of 70% (v/v) ethanol per well and incubated for 5 minutes at room temperature. The ethanol is removed by aspiration via a MultiScreen HTS Vacuum Manifold unit (Millipore, Cat no: MSVMHT500). The plates are washed twice by adding 200 μl/well ddH2O). The MultiScreen-IP plate is incubated at room temperature for 30 minutes to allowing binding of casein to the plate. The MultiScreen-IP plates are washed three times by adding 200 μl/well 100 mM phosphoric acid solution and the gasket is carefully removed from the back of the MultiScreen-IP plate and the plate dried in the oven for 30 minutes. The MultiScreen-IP plate is backsealed, 50 μL of Microscint™20 is added, then the plates are topsealed and radiolabelled casein detected and quantified on a TopCount™ plate-reader using the ^33P scintillation protocol.

Row | IC50 | Compound
1 | 48 nM | CCNc1cc(-c2cncc(-c3cc(C)cc(CN)c3)c2)cc(-c2ccccn2)n1 [Example 2.116, [5″-(3-Aminomethyl-5-methyl-phenyl)-[2,2′;4′,3″]terpyridin-6′-yl]-ethyl-amine]
2 | 42 nM | CC(C)N1CCN(Cc2ccc(-c3cncc(-c4cc(N)nc(-c5ccccn5)c4)c3)cc2)CC1 [Example 2.72, 5″-[4-(4-Isopropyl-piperazin-1-ylmethyl)-phenyl]-[2,2′;4′,3″]terpyridin-6′-ylamine]
3 | 32 nM | C[C@@H]1CN(Cc2ccc(-c3cncc(-c4cc(-c5ccccn5)nc(C(C)(C)O)c4)c3)cc2)CCN1 [Example 2.91, 2-{5″-[4-((R)-3-Methyl-piperazin-1-ylmethyl)-phenyl]-[2,2′;4′,3″]terpyridin-6′-yl}-propan-2-ol]
4 | 30 nM | CNc1cc(-c2cncc(-c3ccc(N4CCN(C)CC4)cc3)c2)cc(-c2ccccn2)n1 [Example 2.2, Methyl-{5″-[4-(4-methyl-piperazin-1-yl)-phenyl]-[2,2′;4′,3″]terpyridin-6′-yl}-amine]
5 | 28 nM | Cc1cccc(-c2cc(-c3cncc(-c4ccc(CO)cc4)c3)cc(NC3CC3)n2)n1 [Example 2.69, [4-(6′-Cyclopropylamino-6-methyl-[2,2′;4′,3″]terpyridin-5″-yl)-phenyl]-methanol]
6 | 11 nM | [2H]C([2H])([2H])Nc1cc(-c2cncc(-c3ccc(CN4CCN(C(C)C)CC4)cc3)c2)cc(-c2ccccn2)n1 [Example 2.100, {5″-[4-(4-Isopropyl-piperazin-1-ylmethyl)-phenyl]-[2,2′;4′,3″]terpyridin-6′-yl}-methyl-d3-amine]
7 | 17 nM | CNc1cc(-c2cncc(-c3ccc(C(=O)N4CCN(C)CC4)cc3)c2)cc(-c2ccccn2)n1 [Example 2.1, [4-(6′-Methylamino-[2,2′;4′,3″]terpyridin-5″-yl)-phenyl]-(4-methyl-piperazin-1-yl)-methanone]
8 | 236 nM | CNc1cc(-c2cncc(-c3ccnc(OC)c3)c2)cc(-c2ccccn2)n1 [Example 2.17, (2′″-Methoxy-[2,2′;4′,3″;5″,4′″]quaterpyridin-6′-yl)-methyl-amine]
9 | 5 nM | CNc1cc(-c2cncc(-c3cnn(C4CCNCC4)c3)c2)cc(-c2ccn(C)n2)n1 [Example 2.179, Methyl-[6′-(1-methyl-1H-pyrazol-3-yl)-5-(1-piperidin-4-yl-1H-pyrazol-4-yl)-[3,4′]bipyridinyl-2′-yl]-amine]
10 | 209 nM | CC(C)N1CCN(Cc2ccc(-c3cncc(-c4cc(-c5ccccn5)nc(C(C)(C)C)c4)c3)cc2)CC1 [Example 2.95, 6′-tert-Butyl-5″-[4-(4-isopropyl-piperazin-1-ylmethyl)-phenyl]-[2,2′;4′,3″]terpyridine]
11 | 22 nM | CC(C)Nc1cc(-c2cncc(-c3ccc(CN4CCN(C(C)(C)C)CC4)cc3)c2)cc(-c2ccccn2)n1 [Example 2.134, {5″-[4-(4-tert-Butyl-piperazin-1-ylmethyl)-phenyl]-[2,2′;4′,3″]terpyridin-6′-yl}-isopropyl-amine]
12 | 92 nM | Cn1cc(-c2cncc(-c3cc(-c4ccccn4)nc(C(C)(C)O)c3)c2)cn1 [Example 2.86, 2-[5″-(1-Methyl-1H-pyrazol-4-yl)-[2,2′;4′,3″]terpyridin-6′-yl]-propan-2-ol]
13 | 154 nM | CCNc1cc(-c2cncc(-c3cccc(CN4CCN(C(C)(C)C)CC4)c3)c2)cc(-c2ccccn2)n1 [Example 2.111, {5″-[3-(4-tert-Butyl-piperazin-1-ylmethyl)-phenyl]-[2,2′;4′,3″]terpyridin-6′-yl}-ethyl-amine]
14 | 89 nM | c1ccc(-c2cc(-c3cncc(-c4ccc(CN5CCNCC5)cc4)c3)cc(NC3CC3)n2)nc1 [Example 2.70, Cyclopropyl-[5″-(4-piperazin-1-ylmethyl-phenyl)-[2,2′;4′,3″]terpyridin-6′-yl]-amine]
15 | 22 nM | CC(C)(C)N1CCN(Cc2ccc(-c3cncc(-c4cc(NC5CC5)nc(-c5ccccn5)c4)c3)cc2)CC1 [Example 2.120, {5″-[4-(4-tert-Butyl-piperazin-1-ylmethyl)-phenyl]-[2,2′;4′,3″]terpyridin-6′-yl}-cyclopropyl-amine]
16 | 8 nM | O=C(c1ccc(-c2cncc(-c3cc(NC4CC4)nc(-c4ccccn4)c3)c2)cc1)N1CCNCC1 [Example 2.30, [4-(6′-Cyclopropylamino-[2,2′;4′,3″]terpyridin-5″-yl)-phenyl]-piperazin-1-yl-methanone]
17 | 22 nM | CC(C)(O)c1cc(-c2cncc(-c3cnn(C4CCNCC4)c3)c2)cc(-c2ccccn2)n1 [Example 2.88, 2-[5″-(1-Piperidin-4-yl-1H-pyrazol-4-yl)-[2,2′;4′,3″]terpyridin-6′-yl]-propan-2-ol]
18 | 16 nM | CNc1cc(-c2cncc(-c3cccc(CN4CCN(C)CC4)c3)c2)cc(-c2ccccn2)n1 [Example 2.23, Methyl-{5″-[3-(4-methyl-piperazin-1-ylmethyl)-phenyl]-[2,2′;4′,3″]terpyridin-6′-yl}-amine]
19 | 29 nM | c1ccc(-c2cc(-c3cccnc3)cc(NCCc3cccc4[nH]ccc34)n2)nc1 [Example 1.6, [2-(1H-Indol-4-yl)-ethyl]-[2,2′;4′,3″]terpyridin-6′-yl-amine]
20 | 19 nM | c1cncc(-c2cc(NCc3cccc4[nH]ccc34)nc(-c3ccco3)c2)c1 [Example 1.2, (6′-Furan-2-yl-[3,4′]bipyridinyl-2′-yl)-(1H-indol-4-ylmethyl)-amine]
21 | 35 nM | CC(C)(C)N1CCN(Cc2ccc(-c3cncc(-c4cc(N)nc(-c5ccccn5)c4)c3)cc2)CC1 [Example 2.158, 5″-[4-(4-tert-Butyl-piperazin-1-ylmethyl)-phenyl]-[2,2′;4′,3″]terpyridin-6′-ylamine]
22 | 9 nM | CNc1cc(-c2cncc(-c3ccc(C(=O)N4CCN(C)CC4)cc3)c2)cc(-c2ccccn2)n1 [Example 2.106, [4-(6′-Methyl-d3-amino-[2,2′;4′,3″]terpyridin-5″-yl)-phenyl]-(4-methyl-d3-piperazin-1-yl)-methanone]
23 | 357 nM | CC(C)Nc1cc(-c2cncc(-c3cccc(CN4CCN(C(C)(C)C)CC4)c3)c2)cc(-c2ccccn2)n1 [Example 2.133, {5″-[3-(4-tert-Butyl-piperazin-1-ylmethyl)-phenyl]-[2,2′;4′,3″]terpyridin-6′-yl}-isopropyl-amine]
24 | 24 nM | Nc1cc(-c2cncc(-c3ccc(CN4CCNCC4)cc3)c2)cc(-c2ccccn2)n1 [Example 2.159, 5″-(4-piperazin-1-ylmethyl-phenyl)-[2,2′;4′,3″]terpyridin-6′-ylamine]
25 | 28 nM | CC(C)(O)c1cc(-c2cncc(-c3ccc(CN4CCNCC4)cc3)c2)cc(-c2ccccn2)n1 [Example 2.81, 2-[5″-(4-piperazin-1-ylmethyl-phenyl)-[2,2′;4′,3″]terpyridin-6′-yl]-propan-2-ol]
26 | 4 nM | CC(C)N1CCN(Cc2ccc(-c3cncc(-c4cc(NC5CC5)nc(-c5ccccn5)c4)c3)cc2)CC1 [Example 2.31, Cyclopropyl-{5″-[4-(4-isopropyl-piperazin-1-ylmethyl)-phenyl]-[2,2′;4′,3″]terpyridin-6′-yl}-amine]
27 | 35 nM | CC1(C)CN(Cc2ccc(-c3cncc(-c4cc(-c5ccccn5)nc(C(C)(C)O)c4)c3)cc2)CCN1 [Example 2.92, 2{-5″-[4-(3,3-Dimethyl-piperazin-1-ylmethyl)-phenyl]-[2,2′;4′,3″]terpyridin-6′-yl}-propan-2-ol]
